From patent EP1137632B1, “THIOUREA INHIBITORS OF HERPES VIRUSES” (Wyeth, priority 1998, dated 2000)
In brackets after ≈: the same amount, converted by molar mass. Where two headings read alike, the source gives them in different places.

What was measured:
[1] = test system: HCMV recombinant mutant virus; test: microbe, parasite or virus in culture; type: cell-based, human cytomegalovirus; conditions: for IC50: Human betaherpesvirus 5, read-out: IC50 (ug/ml) HCMV
From the text: Microtiter plate assay. Ninety-six well plate cultures of human foreskin fibroblasts are infected in the presence of inhibitor compound with a HCMV recombinant mutant virus whose genome contains the prokaryotic beta-glucuronidase gene (Jefferson, R. A., S. M. Burgess, and D. Hirsh. 1986. Beta-glucuronidase from Escherichia coli as a gene fusion marker. Proc. Natl. Acad. Sci. USA 83:8447-8451) whose expression is controlled by a viral promoter. An example of such a virus is RV145 (Jones, T. R., V. P. Muzithras, and Y. Gluzman. 1991. Replacement mutagenesis of the human cytomegalovirus genome: US10 and US11 gene products are nonessential. J. Virol. 65:5860-5872). Since it is under the control of a viral promoter, beta-glucuronidase expression is an indirect indicator of growth and replication of HCMV in this assay. At 96 hours post-infection, the infected cell lysates are prepared (using 50mM sodium phosphate [pH7.0] containing 0.1 % Triton X-100 and 0.1% sarkosyl) and assayed for beta-glucuronidase activity using a substrate for the enzyme which when cleaved yields either a product which can be measured colorimetrically in a spectrophotometer or fluorescently in a microfluorimeter. Examples of such substrates are p-nitrophenyl-beta-D-glucuronide and methylumbelliferylglucuronide, respectively. The presence of an antiviral compound is indicated by the reduced expression of the HCMV genome resident beta-glucuronidase gene, compared to the absence of inhibitor. […] Data from this assay generated using varying amounts of inhibitor compound is also used to estimate the IC50 of an inhibitor compound.

VZV strain Ellen = test: VZV antiviral (ELISA) assay in human foreskin fibroblast cells; type: cell-based, varicella-zoster virus; conditions: for IC50: read-out: IC50 (ug/ml) VZV; for inhibition at 10 µg/mL: Human alphaherpesvirus 3, Fibroblast, read-out: % inhibition 10 ug/ml VZV
Description: VZV antiviral (ELISA) assay
For the generation of stock VZV to be used in the assay, VZV strain Ellen (ATCC #VR-1367) is used to infect human foreskin fibroblast (HFF) cells at low multiplicity (less than 0.1) and incubated overnight at 37°C in 5% CO2. After the overnight incubation, the mixture of uninfected and VZV-infected HFF infected cells are then harvested and added to each well of 96-well plates (3.5x10^4 cells in 100 µl DMEM supplemented with 2% FBS) which contain test compound or the reference standard drug control (in 100µl DMEM supplemented with 2% FBS per well). These cells are incubated for three days at 37°C in 5% CO2, then fixed for ELISA assay. The primary antibody is murine anti-VZV glycoprotein II monoclonal antibody (Applied Biosystems, Inc. #13-145-100) and the secondary antibody is goat anti-mouse IgG linked to β-galactosidase. Thus the extent of viral replication is determined by assessing β-galactosidase activity by quantifying the generation of the 4-methyl umbelliferone fluorescent cleavage product after addition of the methyl umbelliferyl-β-D-galactoside (Sigma #M1633) substrate on a microfluorimeter (365nm for excitation and 450nm for emission). Antiviral activity (IC50) of the test compound is determined by comparing the flourescence obtained in absence of compound to that obtained in the presence of compound.

HSV-1 = test: HSV antiviral (ELISA) assay in Vero cells; type: cell-based, herpes simplex virus type 1; conditions: for IC50: read-out: IC50 (ug/ml) HSV
Description: HSV antiviral (ELISA) assay
Vero cells (ATCC #CCL-81) are plated on 96-well tissue culture plates at 3.5x10^4 cells per 100µl tissue culture DMEM (Dulbecco's modified Eagle media) supplemented with 2% fetal bovine serum (FBS) in each well. After overnight incubation @ 37°C (in 5% CO2) and 30 minutes prior to infection with HSV-1 (multiplicity of infection equal to 0.006), cells are either untreated, or treated with test compound (multiple concentrations) or reference standard drug control. After approximately 24 hours post-infection incubation @ 37°C (in 5% CO2), cells are fixed for ELISA assay. The primary antibody is murine anti-HSV glycoprotein D monoclonal primary antibody and the secondary antibody is goat anti-mouse IgG linked to β-galactosidase. Thus the extent of viral replication is determined by assessing β-galactosidase activity by quantifying the generation of the 4-methyl umbelliferone fluorescent cleavage product after addition of the methyl umbelliferyl-β-D-galactoside (Sigma #M1633) substrate on a microfluorimeter (365nm for excitation and 450nm for emission). Antiviral activity (IC50) of the test compound is determined by comparing the flourescence obtained in absence of compound to that obtained in the presence of compound.

[2] = Human alphaherpesvirus 3, VZV strain Ellen in HFF cells
[3] = Human alphaherpesvirus 1, HSV-1 in Vero cells

| Molecule | IC50 [1] [µg/mL] | IC50 (VZV strain Ellen; [2]) [µg/mL] | IC50 (HSV-1; [3]) [µg/mL] | other results |
| --- | --- | --- | --- | --- |
| Cc1cc(NC(=S)NC(C)c2ccc(C#N)cc2)ccc1NC(=O)c1ccccc1F (stereo not shown) [Example 1047, N-(4-{3-[1-(4-Cyano-phenyl)-ethyl]-thioureido}-2-methyl-phenyl)-2-fluoro-benzamide] | 6.1 (≈ 14.1 µM) |  |  | IC50 (VZV strain Ellen; Human alphaherpesvirus 3, HFF): 0.63 µg/mL (≈ 1.46 µM); IC50 (HSV-1; Human alphaherpesvirus 1, Vero): > 10 µg/mL |
| COc1cc(OC)c(NC(=S)Nc2ccc(NC(=O)c3ccccc3F)cc2OC)cc1Cl [Example 389, N-{4-[3-(5-Chloro-2,4-dimethoxy-phenyl)-thioureido]-3-methoxy-phenyl}-2-fluoro-benzamide] | 1.5 (≈ 3.06 µM) | > 10 | 0.04 (≈ 0.0816 µM) | inhibition at 10 µg/mL (VZV strain Ellen): 9% |
| CC(NC(=S)Nc1ccc(NC(=O)c2ccccc2F)c(C#N)c1)c1ccc(C#N)cc1 (stereo not shown) [Example 1042, N-(2-Cyano-4-{3-[1-(4-cyano-phenyl)-ethyl]-thioureido}-phenyl)-2-fluoro-benzamide] | 2.1 (≈ 4.73 µM) | 0.54 (≈ 1.22 µM) | 4.2 (≈ 9.47 µM) |  |
| Cc1cc(NC(=S)NC(C)c2ccc(F)cc2)ccc1NC(=O)c1nccc2ccccc12 (stereo not shown) [Example 1072, Isoquinoline-1-carboxylic acid (4-{3-[1-(4-fluoro-phenyl)-ethyl]-thioureido}-2-methyl-phenyl)-amide] | > 10 | 0.027 (≈ 0.0589 µM) | > 10 |  |
| (5H,11H-Benzo[e]pyrrolo[1,2-a][1,4]diazepin-10-yl)-(2-chloro-4-imidazol-1-yl-phenyl)-methanone [Example 322] |  |  |  | IC50 (ug/ml) HCMV ([1]; HCMV, the table does not say which HCMV assay): 7 µg/mL; % inhibition 10 ug/ml VZV (VZV strain Ellen; 10 ug/ml): 108%; IC50 (ug/ml) VZV (VZV strain Ellen; VZV strain Ellen in HFF cells): 8 µg/mL; IC50 (ug/ml) HSV (HSV-1; HSV-1 in Vero cells): 4 µg/mL |
| COc1cc(OC)c(NC(=S)Nc2cc(OC)c(NC(=O)c3ccccc3F)cc2C)cc1Cl [Example 286, N-{4-[3-(5-Chloro-2,4-dimethoxy-phenyl)-thioureido]-2-methoxy-5-methyl-phenyl}-2-fluoro-benzamide] | 40 (≈ 79.4 µM) | > 10 | 2 (≈ 3.97 µM) | inhibition at 10 µg/mL (VZV strain Ellen): 5% |
| CCOc1cc(NC(=S)NC(C)c2ccc(F)cc2)ccc1NC(=O)c1ccccc1F (stereo not shown) [Example 1060, N-(2-Ethoxy-4-{3-[1-(4-fluoro-phenyl)-ethyl]-thioureido}-phenyl)-2-fluoro-benzamide] | > 10 | 0.26 (≈ 0.571 µM) | > 10 |  |
| CC(NC(=S)Nc1cc(Br)c(NC(=O)c2ccccc2F)c(Br)c1)c1ccc(F)cc1 (stereo not shown) [Example 1033, N-(2,6-Dibromo-4-{3-[1-(4-fluoro-phenyl)-ethyl]-thioureido}-phenyl)-2-fluoro-benzamide] | 3.8 (≈ 6.68 µM) | 0.039 (≈ 0.0685 µM) | 7 (≈ 12.3 µM) |  |
| CC(NC(=S)Nc1ccc(NC(=O)c2ccccc2F)c(C(F)(F)F)c1)c1cc2ccccc2o1 (stereo not shown) [Example 1037, N-{4-[3-(1-Benzofuran-2-yl-ethyl)-thioureido]-2-trifluoromethyl-phenyl}-2-fluoro-benzamide] | 2 (≈ 3.99 µM) | 0.027 (≈ 0.0538 µM) | 3.6 (≈ 7.18 µM) |  |
| Cc1cc(NC(=S)NC(C)c2cc3ccccc3o2)ccc1NC(=O)c1ccccc1F (stereo not shown) [Example 1048, N-{4-[3-(1-Benzofuran-2-yl-ethyl)-thioureido]-2-methyl-phenyl}-2-fluoro-benzamide] | 3.4 (≈ 7.6 µM) | 0.061 (≈ 0.136 µM) | > 10 |  |
| CSc1ccc(NC(=S)Nc2ccc(NC(=O)c3ccccc3F)c(C)c2)cc1Cl [Example 408, N-{4-[3-(3-Chloro-4-methylsulfanyl-phenyl)-thioureido]-2-methyl-phenyl}-2-fluoro-benzamide] | 6 (≈ 13 µM) | > 10 | 0.2 (≈ 0.435 µM) | inhibition at 10 µg/mL (VZV strain Ellen): 56% |
